Literature values, collected in patent US9446050B2, “Method for treatment of mesothelioma” (THE BRIGHAM AND WOMEN'S HOSPITAL, INC., priority 2011, dated 2016).

How the values were obtained:
mesothelioma [1] = conditions: large-dose single treatment in combination with leucovin
mesothelioma [2] = conditions: single agent

Structure (SMILES) | efficacy rate (mesothelioma [1]) [%] | median overall survival (mesothelioma [2]) [months] | response rate (mesothelioma [2]) [%]
CN(Cc1cnc2nc(N)nc(N)c2n1)c1ccc(C(=O)N[C@@H](CCC(=O)O)C(=O)O)cc1 [methotrexate] | 37 |  | 
Nc1nc2[nH]cc(CCc3ccc(C(=O)N[C@@H](CCC(=O)O)C(=O)O)cc3)c2c(=O)[nH]1 [pemetrexed] |  | 10.7 | 14.1
